Each block holds one compound with its values, some of them ahead of it.
How the values were obtained:
Assay type in all cases: ADME, organism-based
[1] = system: Plasma; assay: Volume of distribution in extracorporeal membrane oxygenation-treated human neonatal plasma at 20 mg/kg, po by UPLC-MS/MS analysis; design: dose 20 mg/kg, route oral; details: in vivo
[2] = Volume of distribution in extracorporeal membrane oxygenation-treated human neonatal plasma at 25 mg/kg SID by UPLC-MS/MS analysis; design: dose 25 mg/kg
[3] = Elimination rate constant in extracorporeal membrane oxygenation-treated human neonatal plasma at 25 mg/kg QID by UPLC-MS/MS analysis; design: dose 25 mg/kg
[4] = Volume of distribution in extracorporeal membrane oxygenation-treated human neonatal plasma at 50 mg/kg BID by UPLC-MS/MS analysis; design: dose 50 mg/kg
[5] = Elimination rate constant in extracorporeal membrane oxygenation-treated human neonatal plasma treatment at 50 mg/kg BID by UPLC-MS/MS analysis; design: dose 50 mg/kg
[6] = system: Plasma; assay: Intercompartmental clearance rate from peripheral to central side of extracorporeal membrane oxygenation-treated human neonatal plasma at 20 mg/kg, po by UPLC-MS/MS analysis; design: dose 20 mg/kg, route oral; details: in vivo
[7] = system: Plasma; assay: Intercompartmental clearance rate from central to peripheral side of extracorporeal membrane oxygenation-treated human neonatal plasma at 20 mg/kg, po by UPLC-MS/MS analysis; design: dose 20 mg/kg, route oral; details: in vivo

Vd [1]: 1.03 L/kg | Vd [2]: 0.713 L/kg | k el [3]: 9.17e-05 s⁻¹
SMILES: CC1(C)S[C@@H]2[C@H](NC(=O)[C@H](N)c3ccc(O)cc3)C(=O)N2[C@H]1C(=O)O [AMOXICILLIN]

Vd [4]: 0.912 L/kg | k el [5]: 5.47e-05 s⁻¹
SMILES: CO/N=C(\C(=O)N[C@@H]1C(=O)N2C(C(=O)O)=C(COC(C)=O)CS[C@H]12)c1csc(N)n1 [CEFOTAXIME]

SMILES: CN[C@H](CC(C)C)C(=O)N[C@H]1C(=O)N[C@@H](CC(N)=O)C(=O)N[C@H]2C(=O)N[C@H]3C(=O)N[C@H](C(=O)N[C@H](C(=O)O)c4cc(O)cc(O)c4-c4cc3ccc4O)[C@H](O)c3ccc(c(Cl)c3)Oc3cc2cc(c3O[C@@H]2O[C@H](CO)[C@@H](O)[C@H](O)[C@H]2O[C@H]2C[C@](C)(N)[C@H](O)[C@H](C)O2)Oc2ccc(cc2Cl)[C@H]1O [VANCOMYCIN]
k21 [6]: 2.634 h⁻¹ | k12 [7]: 1.5 h⁻¹
